Data taken from patent US20260365670A1, “EGFR INHIBITORS AND USES THEREOF” (DIZAL (JIANGSU) PHARMACEUTICAL CO., LTD., priority 2022, published 2026).
Read-outs that look alike come from different tables or passages of the source.

Tests used:
[1] = test system: PC-9; test: Cell proliferation assay, PC-9 cells (CellTiter-Glo, 72 hours); format: cell-based; conditions: PC9 cells, CellTiter-Glo, read-out: PC9 GI50
Procedure, shortened: (§1)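 Growth over 72 h was quantified by CellTiter-Glo luminescence, normalised as (G3 − G0)/(DMSO G3 − G0), for PC-9 cells seeded at 500/well and EGFR-mutant Ba/F3 cells at 5000/well in RPMI1640. Compound concentration series added after overnight incubation; GI50 obtained from best-fit curves.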

[2] = target: T1, EGFR (C797S L858R) (Homo sapiens, UniProt P00533, C797S/L858R); test: Inhibition of EGFR (C797S L858R) biochemical enzymatic activity (HTRF); conditions: EGFR L858-C797S, 1 mM ATP, 1 h, room temperature, read-out: IC50 (nM) @L858-C797S
T1 construct: purchased signalchem
Procedure, shortened: (§2)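 Compounds at varying concentrations were tested against each EGFR form using 1 mM ATP and 1 μM TK Substrate-biotin. Reactions ran 1 h at room temperature in Mg2+/Mn2+ buffer with CHAPS, DTT and 0.5% DMSO. Time-resolved fluorescence gave IC50 by four-parameter fit.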

[3] = test system: Ba/F3 cells expressing EGFR mutations; test: Cell proliferation assay, Ba/F3 cells expressing EGFR mutations (CellTiter-Glo, 72 hours); format: cell-based; conditions: CellTiter-Glo
Procedure, shortened: as §1

[4] = target: T2, EGFR Exon19Del (Homo sapiens, UniProt P00533, DEL746-750); test: Inhibition of EGFR Exon19Del biochemical enzymatic activity (HTRF); conditions: EGFR Del19, 1 mM ATP, 1 h, room temperature, read-out: IC50 @Del19
T2 construct: purchased Carna Bio
Procedure, shortened: as §2

[5] = target: T3, EGFR wild type (Homo sapiens, UniProt P00533); test: Inhibition of EGFR wild type biochemical enzymatic activity (HTRF); conditions: EGFR WT, 1 mM ATP, 1 h, room temperature, read-out: IC50 (nM) @WT
T3 construct: purchased Carna Bio
Procedure, shortened: as §2

[6] = target: T4, EGFR Exon19Del/T790M (Homo sapiens, UniProt P00533, DEL746-750/T790M); test: Inhibition of EGFR Exon19Del/T790M biochemical enzymatic activity (HTRF); conditions: EGFR Del19-T790M, 1 mM ATP, 1 h, room temperature, read-out: IC50 (nM) @Del19-T790M
T4 construct: purchased Carna Bio
Procedure, shortened: as §2

[7] = target: T5, EGFR L858R/T790M (Homo sapiens, UniProt P00533, L858R/T790M); test: Inhibition of EGFR L858R/T790M biochemical enzymatic activity (HTRF); conditions: EGFR L858R-T790M, 1 mM ATP, 1 h, room temperature, read-out: IC50 (nM) @L858R-T790M
T5 construct: purchased Carna Bio
Procedure, shortened: as §2

[8] = test system: A-431; test: Cell proliferation GI50, A-431 cells (Table 6); format: cell-based
Procedure: [Worded in the source for another cell line; this cell line is reported under the same test.] Ba/F3 cells expressing EGFR mutations were seeded in 384-well plates at 5000 cells/well in RPMI1640 medium containing […]. PC-9 at 500 cells/well was seeded into 384-well plates in RPMI1640 medium with 10% FBS. After overnight incubation, the assay plates were dosed with compounds at a series of concentrations. Alongside dosing the assay plates, the day 0 plate was processed using CellTiter-Glo® Luminescent Cell Viability Assay (Promega) to measure the number of viable cells (G0). The assay plates were further incubated for 72 hours and the number of viable cells (G3) was measured. The percentage of proliferation was calculated as: […]=100×(G3 value of sample well−G0 value)/(G3 value of DMSO control−G0 value). The concentration of compound producing 50% proliferation inhibition (GI50) was further calculated in best-fit curves using XLFit software. N/A=not available.

[9] = target: T6, EGFR L858R (Homo sapiens, UniProt P00533, L858R); test: Inhibition of EGFR L858R biochemical enzymatic activity (HTRF); conditions: 1 mM ATP, 1 h, room temperature, read-out: IC50 (nM) @L858R
T6 construct: purchased Carna Bio
Procedure, shortened: as §2

[10] = target: T7, EGFR[T790M/C797S/L858R] (Homo sapiens, UniProt P00533, C797S/L858R/T790M); test: Inhibition of EGFR[T790M/C797S/L858R] biochemical enzymatic activity (HTRF); conditions: EGFR T790M-C797S-L858R, 1 mM ATP, 1 h, room temperature, read-out: IC50 (nM) @T790M- C797S - L858R
T7 construct: purchased Carna Bio
Procedure, shortened: as §2

[11] = target: T8, EGFR[T790M/C797S/d746-750] (Homo sapiens, UniProt P00533, C797S/DEL746-750/T790M); test: Inhibition of EGFR[T790M/C797S/d746-750] biochemical enzymatic activity (HTRF); conditions: EGFR T790M-C797S-Del19, 1 mM ATP, 1 h, room temperature, read-out: IC50 (nM) @T790M - C797S - Del19
T8 construct: purchased Carna Bio
Procedure, shortened: as §2

[12] = target: T9, EGFR (d746-750 C797S) (Homo sapiens, UniProt P00533, C797S/DEL746-750); test: Inhibition of EGFR (d746-750 C797S) biochemical enzymatic activity (HTRF); conditions: EGFR Del19-C797S, 1 mM ATP, 1 h, room temperature, read-out: IC50 (nM) @Del19-C797S
T9 construct: purchased signalchem
Procedure, shortened: as §2

[13] = BaF3 cells, EGFR DEL19-C797S, read-out: DEL19-C797S/BaF3 GI50
[14] = BaF3 cells, EGFR DEL19-T790-C797S, read-out: DEL19-T790-C797S/BaF3 GI50
[15] = BaF3 cells, EGFR L858R, read-out: L858R/BaF3 GI50
[16] = BaF3 cells, EGFR L858R-C797S, read-out: L858R-C797S/BaF3 GI50
[17] = BaF3 cells, EGFR L858R-T790-C797S, read-out: L858R-T790-C797S/BaF3 GI50
[18] = BaF3 cells, EGFR L858R-T790M, read-out: L858R-T790M/BaF3 GI50
[19] = EGFR DEL19-T790M, read-out: DEL19-T790M GI50
[20] = Mus musculus, BaF3, 72 h, BaF3 cells, EGFR DEL19-C797S, read-out: DEL19-C797S/BaF3 GI50
[21] = Mus musculus, BaF3, 72 h, BaF3 cells, EGFR DEL19-T790-C797S, read-out: DEL19-T790-C797S/BaF3 GI50
[22] = Mus musculus, BaF3, 72 h, BaF3 cells, EGFR L858R, read-out: L858R/BaF3 GI50
[23] = Mus musculus, BaF3, 72 h, BaF3 cells, EGFR L858R-C797S, read-out: L858R-C797S/BaF3 GI50
[24] = Mus musculus, BaF3, 72 h, BaF3 cells, EGFR L858R-T790-C797S, read-out: L858R-T790-C797S/BaF3 GI50
[25] = Mus musculus, BaF3, 72 h, BaF3 cells, EGFR L858R-T790M, read-out: L858R-T790M/BaF3 GI50
[26] = Mus musculus, BaF3, 72 h, EGFR DEL19-T790M, read-out: DEL19-T790M GI50
[27] = Homo sapiens, A-431, A-431 cells

T8 sequence (P00533 with tags, fused parts or gaps DEL746-750/T790M/C797S limits assumed): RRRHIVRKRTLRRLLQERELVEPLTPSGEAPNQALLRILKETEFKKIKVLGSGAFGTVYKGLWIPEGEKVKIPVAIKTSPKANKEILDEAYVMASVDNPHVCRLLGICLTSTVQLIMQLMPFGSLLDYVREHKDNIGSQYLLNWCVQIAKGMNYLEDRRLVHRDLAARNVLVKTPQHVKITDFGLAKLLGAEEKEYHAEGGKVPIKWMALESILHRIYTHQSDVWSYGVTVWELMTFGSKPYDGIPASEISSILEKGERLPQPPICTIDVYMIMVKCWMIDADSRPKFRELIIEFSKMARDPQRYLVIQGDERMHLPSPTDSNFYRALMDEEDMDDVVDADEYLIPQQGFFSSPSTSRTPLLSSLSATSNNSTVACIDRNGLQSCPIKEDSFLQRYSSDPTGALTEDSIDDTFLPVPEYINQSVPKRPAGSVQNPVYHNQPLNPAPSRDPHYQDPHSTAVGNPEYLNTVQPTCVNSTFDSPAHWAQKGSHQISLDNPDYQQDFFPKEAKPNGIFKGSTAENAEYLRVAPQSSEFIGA
T9 sequence (P00533 with tags, fused parts or gaps DEL746-750/C797S limits assumed): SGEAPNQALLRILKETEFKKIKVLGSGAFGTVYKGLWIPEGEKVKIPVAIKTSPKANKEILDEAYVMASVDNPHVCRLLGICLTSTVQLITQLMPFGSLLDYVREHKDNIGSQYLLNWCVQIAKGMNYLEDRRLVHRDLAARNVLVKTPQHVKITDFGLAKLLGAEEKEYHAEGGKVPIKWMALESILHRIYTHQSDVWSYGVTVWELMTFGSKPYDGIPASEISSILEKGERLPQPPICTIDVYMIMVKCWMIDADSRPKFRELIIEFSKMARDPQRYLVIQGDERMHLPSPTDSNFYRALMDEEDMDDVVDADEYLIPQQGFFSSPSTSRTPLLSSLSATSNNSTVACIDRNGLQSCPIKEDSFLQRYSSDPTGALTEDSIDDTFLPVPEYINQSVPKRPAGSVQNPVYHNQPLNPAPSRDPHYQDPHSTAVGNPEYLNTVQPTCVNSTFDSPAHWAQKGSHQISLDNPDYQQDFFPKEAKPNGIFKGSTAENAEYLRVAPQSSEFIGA
T6 sequence (P00533 25-1210 L858R): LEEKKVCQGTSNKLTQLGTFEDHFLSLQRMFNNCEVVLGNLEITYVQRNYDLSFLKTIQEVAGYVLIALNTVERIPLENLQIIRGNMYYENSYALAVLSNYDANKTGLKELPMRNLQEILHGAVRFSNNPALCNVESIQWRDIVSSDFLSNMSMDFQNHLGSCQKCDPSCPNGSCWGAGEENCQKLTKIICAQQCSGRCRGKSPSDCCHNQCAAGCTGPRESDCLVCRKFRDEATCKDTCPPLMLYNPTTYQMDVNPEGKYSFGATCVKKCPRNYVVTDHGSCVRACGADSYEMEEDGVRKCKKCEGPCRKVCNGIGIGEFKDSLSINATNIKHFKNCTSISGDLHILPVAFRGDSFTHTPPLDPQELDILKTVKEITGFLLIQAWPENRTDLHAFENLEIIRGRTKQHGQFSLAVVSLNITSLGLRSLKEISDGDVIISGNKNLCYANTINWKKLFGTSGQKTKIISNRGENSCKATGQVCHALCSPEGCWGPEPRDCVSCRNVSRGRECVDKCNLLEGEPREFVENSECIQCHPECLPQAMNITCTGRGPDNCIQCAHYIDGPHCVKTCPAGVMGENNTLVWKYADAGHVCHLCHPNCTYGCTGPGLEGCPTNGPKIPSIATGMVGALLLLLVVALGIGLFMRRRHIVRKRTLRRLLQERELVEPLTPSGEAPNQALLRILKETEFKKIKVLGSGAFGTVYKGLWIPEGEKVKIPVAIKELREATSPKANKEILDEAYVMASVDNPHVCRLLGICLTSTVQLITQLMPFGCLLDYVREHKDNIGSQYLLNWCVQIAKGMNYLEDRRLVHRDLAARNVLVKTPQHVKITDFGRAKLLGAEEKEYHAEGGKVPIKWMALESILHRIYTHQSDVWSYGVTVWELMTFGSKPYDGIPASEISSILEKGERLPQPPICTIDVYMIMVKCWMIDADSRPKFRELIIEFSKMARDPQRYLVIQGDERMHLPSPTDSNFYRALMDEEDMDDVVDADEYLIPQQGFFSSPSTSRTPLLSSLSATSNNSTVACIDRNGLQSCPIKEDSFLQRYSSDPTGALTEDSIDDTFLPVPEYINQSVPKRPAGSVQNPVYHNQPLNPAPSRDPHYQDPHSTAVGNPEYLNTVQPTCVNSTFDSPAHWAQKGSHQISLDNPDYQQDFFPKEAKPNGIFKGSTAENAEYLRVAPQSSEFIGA
T2 sequence (P00533 with tags, fused parts or gaps DEL746-750 limits assumed): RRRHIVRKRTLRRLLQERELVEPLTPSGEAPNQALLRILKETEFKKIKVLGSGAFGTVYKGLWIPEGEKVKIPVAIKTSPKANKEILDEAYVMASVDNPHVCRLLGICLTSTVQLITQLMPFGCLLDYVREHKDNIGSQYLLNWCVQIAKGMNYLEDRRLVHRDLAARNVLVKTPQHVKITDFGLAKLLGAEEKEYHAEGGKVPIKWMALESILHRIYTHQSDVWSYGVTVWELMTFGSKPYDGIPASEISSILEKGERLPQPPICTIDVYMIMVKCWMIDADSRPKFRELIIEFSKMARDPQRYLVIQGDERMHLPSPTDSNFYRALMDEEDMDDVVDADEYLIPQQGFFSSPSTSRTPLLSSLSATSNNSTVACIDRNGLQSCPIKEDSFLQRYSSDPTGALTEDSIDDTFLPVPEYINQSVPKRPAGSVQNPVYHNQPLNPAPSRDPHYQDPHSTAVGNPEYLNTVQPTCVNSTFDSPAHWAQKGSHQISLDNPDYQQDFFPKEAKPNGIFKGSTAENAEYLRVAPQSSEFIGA
T7 sequence (P00533 25-1210 T790M/C797S/L858R): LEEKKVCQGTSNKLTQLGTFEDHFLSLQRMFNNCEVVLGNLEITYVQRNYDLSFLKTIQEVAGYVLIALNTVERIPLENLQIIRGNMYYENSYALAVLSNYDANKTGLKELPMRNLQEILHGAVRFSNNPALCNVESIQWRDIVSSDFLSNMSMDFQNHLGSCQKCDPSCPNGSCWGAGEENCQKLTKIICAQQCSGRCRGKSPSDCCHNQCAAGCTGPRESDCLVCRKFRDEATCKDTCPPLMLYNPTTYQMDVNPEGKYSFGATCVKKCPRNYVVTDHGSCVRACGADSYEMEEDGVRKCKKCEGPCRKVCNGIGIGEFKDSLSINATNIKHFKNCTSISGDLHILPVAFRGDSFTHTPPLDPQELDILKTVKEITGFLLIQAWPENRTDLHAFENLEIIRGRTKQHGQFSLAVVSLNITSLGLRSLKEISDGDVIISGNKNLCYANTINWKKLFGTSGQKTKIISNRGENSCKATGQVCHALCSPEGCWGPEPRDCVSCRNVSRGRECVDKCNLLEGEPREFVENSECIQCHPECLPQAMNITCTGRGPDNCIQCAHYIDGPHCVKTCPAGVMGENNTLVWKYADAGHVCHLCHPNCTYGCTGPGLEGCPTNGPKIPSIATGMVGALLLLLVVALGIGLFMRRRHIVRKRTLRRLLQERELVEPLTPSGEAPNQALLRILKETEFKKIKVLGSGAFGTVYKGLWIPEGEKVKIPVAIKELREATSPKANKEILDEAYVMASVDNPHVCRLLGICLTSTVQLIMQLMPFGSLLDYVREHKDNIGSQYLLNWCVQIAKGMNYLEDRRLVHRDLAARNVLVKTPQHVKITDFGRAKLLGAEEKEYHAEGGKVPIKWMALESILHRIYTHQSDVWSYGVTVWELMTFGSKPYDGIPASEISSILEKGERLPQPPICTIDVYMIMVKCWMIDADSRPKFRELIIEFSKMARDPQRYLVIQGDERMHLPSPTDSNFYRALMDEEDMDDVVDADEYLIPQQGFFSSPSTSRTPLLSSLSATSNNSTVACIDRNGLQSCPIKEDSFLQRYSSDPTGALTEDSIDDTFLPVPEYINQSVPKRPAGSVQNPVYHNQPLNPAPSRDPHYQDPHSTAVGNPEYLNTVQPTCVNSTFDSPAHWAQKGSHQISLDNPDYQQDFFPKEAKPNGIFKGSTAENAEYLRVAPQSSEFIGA
T4 sequence (P00533 with tags, fused parts or gaps DEL746-750/T790M limits assumed): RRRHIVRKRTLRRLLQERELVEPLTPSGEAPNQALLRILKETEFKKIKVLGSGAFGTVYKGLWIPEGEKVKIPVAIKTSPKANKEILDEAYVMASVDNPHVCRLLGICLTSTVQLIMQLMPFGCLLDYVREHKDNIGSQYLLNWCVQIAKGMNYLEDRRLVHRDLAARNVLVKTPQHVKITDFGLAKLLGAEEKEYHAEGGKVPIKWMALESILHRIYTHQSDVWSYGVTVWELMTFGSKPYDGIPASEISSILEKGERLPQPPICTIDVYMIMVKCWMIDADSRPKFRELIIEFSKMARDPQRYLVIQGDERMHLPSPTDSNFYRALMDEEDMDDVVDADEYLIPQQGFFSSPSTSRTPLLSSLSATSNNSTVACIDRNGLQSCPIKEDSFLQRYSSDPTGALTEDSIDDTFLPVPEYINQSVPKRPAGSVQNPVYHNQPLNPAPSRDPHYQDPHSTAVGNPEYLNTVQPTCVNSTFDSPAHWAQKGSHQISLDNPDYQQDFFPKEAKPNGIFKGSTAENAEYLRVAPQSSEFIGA

Structure (SMILES)	GI50 [1]	GI50 [3, 13]	GI50 [3, 14]	GI50 [3, 15]	GI50 [3, 16]	GI50 [3, 17]	GI50 [3, 18]	GI50 [3, 19]	GI50 ([8]; A-431 cells)	GI50 ([1]; Homo sapiens, PC-9, 72 h)	GI50 [3, 20]	GI50 [3, 21]	GI50 [3, 22]	GI50 [3, 23]	GI50 [3, 24]	GI50 [3, 25]	GI50 [8, 27]	further results
Cn1ncc2c1OCCN1CC3CCC(C3)(C1)n1c(nc3ccc(N4CCN(C5CC5)CC4)cc31)NC(=O)c1cc-2c(=O)n(C)c1 (single isomer, unassigned) [Example A83B]	20 nM	0.7 nM	10 nM	13 nM	8.9 nM	15 nM	25 nM	10 nM	1190 nM	–	–	–	–	–	–	–	–	IC50 [2]: 5 nM; IC50 [4]: 0.96 nM; IC50 [5]: 83 nM; IC50 [6]: 2.7 nM; IC50 [7]: 2.8 nM; IC50 [9]: 5 nM; IC50 [10]: 2.3 nM; IC50 [11]: 2.7 nM; IC50 [12]: 0.96 nM
CN1CCN(c2ccc3c(c2)nc2n3C34CCC(CN(CCOc5c(cnn5C)-c5cc(cn(C)c5=O)C(=O)N2)C3)C4)CC1 (stereo not shown) [Example A60, 15,21-dimethyl-6-(4-methylpiperazin-1-yl)-23-oxa-2,9,11,15,20,21,26-heptaazaheptacyclo[24.4.1.1^{1,28}.1^{13,17}.0^{2,10}.0^{3,8}.0^{18,22}]tritriaconta-3,5,7,9,13,17(33),18(22),19-octaene-12,16-dione]	146 nM	19 nM	40 nM	87 nM	120 nM	86 nM	457 nM	63 nM	4110 nM	–	–	–	–	–	–	–	–	IC50 [2]: 619 nM; IC50 [4]: 23 nM; IC50 [6]: 8.6 nM; IC50 [7]: 240 nM; IC50 [9]: 917 nM; IC50 [10]: 157 nM; IC50 [11]: 9.4 nM; IC50 [12]: 18 nM
CN1CCN(C2CN(c3ccc4nc5n(c4c3)C34CCC(CN(CCOc6c(cnn6C)-c6cc(cn(C)c6=O)C(=O)N5)C3)C4)C2)CC1 (single isomer, unassigned) [Example A70A]	554 nM	188 nM	411 nM	603 nM	452 nM	463 nM	1870 nM	517 nM	3100 nM	–	–	–	–	–	–	–	–	–
CCN1CCOc2c(cnn2C)-c2cc(cn(C)c2=O)C(=O)Nc2nc3ccccc3n2C(C)(C)C1 [Example A7, 10-Ethyl-5,12,12,26-tetramethyl-7-oxa-4,5,10,13,20,22,26-heptaazapentacyclo[22.3.1.0^{2,6}.0^{13,21}.0^{14,19}]octacosa-1(28),2(6),3,14,16,18,20,24-octaene-23,27-dione]	–	–	–	–	–	–	–	–	–	424 nM	279 nM	830 nM	1050 nM	1160 nM	976 nM	803 nM	1410 nM	GI50 [3, 26]: 768 nM
Cn1ncc2c1OCCN1CC3CCC(C3)(C1)n1c(nc3ccc(N4CCN(C5COC5)CC4)cc31)NC(=O)c1cc-2c(=O)n(C)c1 (single isomer, unassigned) [Example A71A]	787 nM	286 nM	579 nM	1760 nM	954 nM	762 nM	2410 nM	735 nM	7860 nM	–	–	–	–	–	–	–	–	–
C[C@@H]1CCCOc2c(cnn2C)-c2cc(cn(C)c2=O)C(=O)Nc2nc3ccc(N4CC5CC4CN5C)cc3n2C1 (stereo partly shown) [Example A31]	–	–	–	–	–	–	–	–	–	35 nM	2.3 nM	3.4 nM	25 nM	10 nM	13 nM	30 nM	790 nM	–
CN1CCN(c2ccc3nc4n(c3c2)C23CCC(CN(CCOc5c(cnn5C)-c5cc(cn(C)c5=O)C(=O)N4)C2)C3)CC1 (single isomer, unassigned) [Example A63A]	841 nM	324 nM	540 nM	2370 nM	1020 nM	988 nM	3690 nM	929 nM	9370 nM	–	–	–	–	–	–	–	–	–
C[C@@H]1CCCOc2c(cnn2C)-c2cc(cn(C)c2=O)C(=O)Nc2nc3ccc(N4CC5CCN(C)C5C4)cc3n2C1 (stereo partly shown) [Example A32]	–	–	–	–	–	–	–	–	–	7.3 nM	0.43 nM	1.5 nM	3 nM	2.8 nM	2.9 nM	9.1 nM	248 nM	GI50 [3, 26]: 3.8 nM
